The text below walks through data of patent publication US9045445B2, “Glycine transporter-1 inhibitors, methods of making them, and uses thereof” (Albany Molecular Research, Inc., priority 2010, dated 2015).

Usually IC50 stands for the point on the concentration scale where inhibition reaches its midpoint.

Where a name gives a salt, the structure may show the parent alone.

The target of the assay is T1, glycine transporter-1 (GlyT-1) (Homo sapiens, UniProt P48067).
T1 construct: JAR cells (ATCC#HTB-144), which endogenously express GlyT-1; host or cells: JAR human choriocarcinoma cells
T1 sequence (P48067 1-706): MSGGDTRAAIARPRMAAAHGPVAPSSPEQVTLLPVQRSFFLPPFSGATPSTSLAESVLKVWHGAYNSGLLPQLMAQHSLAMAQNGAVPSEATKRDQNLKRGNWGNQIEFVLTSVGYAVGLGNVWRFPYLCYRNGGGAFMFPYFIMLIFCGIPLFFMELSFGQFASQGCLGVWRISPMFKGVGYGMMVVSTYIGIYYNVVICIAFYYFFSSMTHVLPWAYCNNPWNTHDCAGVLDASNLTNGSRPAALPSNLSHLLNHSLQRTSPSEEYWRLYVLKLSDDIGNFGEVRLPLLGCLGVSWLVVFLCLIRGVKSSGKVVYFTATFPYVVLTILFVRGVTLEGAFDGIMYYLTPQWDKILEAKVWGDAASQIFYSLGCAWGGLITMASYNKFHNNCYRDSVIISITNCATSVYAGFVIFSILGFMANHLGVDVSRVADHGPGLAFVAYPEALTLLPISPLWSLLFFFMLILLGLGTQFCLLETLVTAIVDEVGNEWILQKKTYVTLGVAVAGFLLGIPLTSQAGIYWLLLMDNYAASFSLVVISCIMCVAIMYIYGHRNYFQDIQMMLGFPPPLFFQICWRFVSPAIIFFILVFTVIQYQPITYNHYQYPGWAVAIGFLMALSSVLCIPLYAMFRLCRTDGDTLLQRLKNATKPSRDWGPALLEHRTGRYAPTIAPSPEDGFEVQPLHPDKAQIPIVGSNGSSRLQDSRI
Kind of assay: [14C]glycine uptake assay in JAR cells endogenously expressing GlyT-1 (scintillation proximity). Type of assay: cell-based. The note with it: JAR cells, [14C]glycine 5 μM, 3 hour incubation; read-out: GlyT-1 IC50. The procedure:
The inhibitory activity of compounds of the invention against the glycine transporter-1 (GlyT-1) can be determined by the following scintillation proximity assay. The potency of each compound was assessed in inhibiting the uptake of radiolabeled glycine ([^14C]glycine) using the human choriocarcinoma cell line, JAR cells (ATCC#HTB-144), which endogenously express GlyT-1. In brief, 50,000 JARS cells were plated per well of tissue culture treated 96-well Cytostar-T plate (PerkinElmer) in RPMI media supplemented with 10% heat inactivated FBS and allowed to attach overnight at 37° C. and 5% CO2. Compounds were serially diluted 3-fold in DMSO generating a nine (9) data point response curve for each compound. Two replicates were performed per determination. The compounds were then diluted into Uptake Buffer (10 mM Hepes, 120 mM NaCl, 2 mM KCl, 1 mM CaCl2 and 1 mM MgCl2, 5 mM Alanine, pH 7.4) with a final DMSO concentration of 0.75% (v/v). Following the overnight incubation, the media was replaced with Uptake Buffer in the presence or absence of diluted compound and pre-incubated at room temperature for 10 minutes prior to the addition of [^14C]glycine at a final concentration of 5 μM. Following a 3 hour incubation period at 37° C. and 5% CO2, the plates were sealed and placed at room temperature in the dark for 15 minutes prior to quantification of incorporated radioactivity using a MicroBeta Trilux scintillation plate reader (PerkinElmer). Data were fit into a four-parameter model to determine the inhibitor concentration at half-maximal response (IC50). The assay window was established by control wells incubated with [^14C]glycine in the presence or absence of 10 mM non-labeled glycine. A dose response curve for a synthesized reference standard was generated on every plate as a positive control.
On the technique in general: SPA uses beads or plates that emit light when radiolabelled molecules are held near them.
In the case of `CCCS(=O)(=O)N1CCN(C2(CNC(=O)c3c(F)cc(F)cc3F)CCC(F)(F)CC2)CC1` [compound 144, N-((4,4-Difluoro-1-(4-(propylsulfonyl)piperazin-1-yl)cyclohexyl)methyl)-2,4,6-trifluorobenzamide Hydrochloride], the IC50 was 46 nM.

Take `CCCS(=O)(=O)N1CCN(C2(CNC(=O)c3ccc(OC)cc3)CCCCCC2)CC1` [compound 67, 4-Methoxy-N-((1-(4-(propylsulfonyl)piperazin-1-yl)cycloheptyl)methyl) benzamide Hydrochloride]: the concentration for half-maximal inhibition (IC50) stood at 863 nM. Turning to `CCCS(=O)(=O)N1CCN(C2(CNC(=O)c3c(C)cccc3C)CCC(F)(F)CC2)CC1` [compound 146, N-((4,4-Difluoro-1-(4-(propylsulfonyl)piperazin-1-yl)cyclohexyl)methyl)-2,6-dimethylbenzamide Hydrochloride], the half-inhibitory concentration (IC50) worked out at 30 nM. As for `CCCS(=O)(=O)N1CCN(C2(CNC(=O)c3c(F)ccc(C(F)(F)F)c3F)CCC(F)(F)CC2)CC1` [compound 262, N-((4,4-Difluoro-1-(4-(propylsulfonyl)piperazin-1-yl)cyclohexyl)methyl)-2,6-difluoro-3-(trifluoromethyl)benzamide Hydrochloride], the IC50 was found to be 223 nM.

On to `CCCS(=O)(=O)N1CCN(C2(CNC(=O)c3c(F)cccc3C(F)(F)F)CCC(F)(F)CC2)CC1` [compound 149, N-((4,4-Difluoro-1-(4-(propylsulfonyl)piperazin-1-yl)cyclohexyl)methyl)-2-fluoro-6-(trifluoromethyl)benzamide Hydrochloride], for which the half-inhibitory concentration (IC50) came out at 69 nM. The result for `Cl.[2H]C([2H])([2H])n1cc(S(=O)(=O)N2CCN(C3(CNC(=O)c4ccc(C(F)(F)F)cc4Cl)CCC(F)(F)CC3)CC2)nn1` [compound 240, 2-Chloro-N-((4,4-difluoro-1-(4-(1-(tris-deutero)methyl-1H-1,2,3-triazol-4-ylsulfonyl)piperazin-1-yl)cyclohexyl)methyl)-4-(trifluoromethyl)benzamide Hydrochloride] reads 49 nM; that for `Cn1cnc(S(=O)(=O)N2CCN(C3(CNC(=O)c4c(Cl)cccc4OC(F)(F)F)CCC(F)(F)CC3)CC2)c1` [compound 187, 2-Chloro-N-((4,4-difluoro-1-(4-(1-methyl-1H-imidazol-4-ylsulfonyl)piperazin-1-yl)cyclohexyl)methyl)-6-(trifluoromethoxy) benzamide Hydrochloride], 1 nM; that for `CCCS(=O)(=O)N1CCN(C2(CNC(=O)c3ccc(C)cc3)CCCCCC2)CC1` [compound 57, 4-Methyl-N-((1-(4-(propylsulfonyl)piperazin-1-yl)cycloheptyl)methyl) benzamide Hydrochloride], 887 nM. Consider `CCS(=O)(=O)N1CCN(C2(CNC(=O)c3c(F)ccc(C(F)(F)F)c3F)CCC(F)(F)CC2)CC1` [compound 211, N-((1-(4-(Ethylsulfonyl)piperazin-1-yl)-4,4-difluorocyclohexyl)methyl)-2,6-difluoro-3-(trifluoromethyl) benzamide Hydrochloride], for which the 50% inhibitory concentration (IC50) was 2780 nM. The result for `CCCS(=O)(=O)N1CCN(C2(CNC(=O)c3cc(Cl)ccc3Cl)CCC(F)(F)CC2)CC1` [compound 243, 2,5-Dichloro-N-((4,4-difluoro-1-(4-(propylsulfonyl)piperazin-1-yl)cyclohexyl)methyl) benzamide Hydrochloride] reads 57 nM; that for `CCCS(=O)(=O)N1CCN(C2(CNC(=O)c3c(F)cccc3OC(F)F)CCC(F)(F)CC2)CC1` [compound 250, N-((4,4-Difluoro-1-(4-(propylsulfonyl)piperazin-1-yl)cyclohexyl)methyl)-2-(difluoromethoxy)-6-fluorobenzamide Hydrochloride], 24 nM; that for `Cn1cc(S(=O)(=O)N2CCN(C3(CNC(=O)c4ccc(C(F)(F)F)cc4C(F)(F)F)CCCC3)CC2)nn1` [compound 275, N-((1-(4-(1-Methyl-1H-1,2,3-triazol-4-ylsulfonyl)piperazin-1-yl)cyclopentyl)methyl)-2,4-bis(trifluoromethyl) benzamide Hydrochloride], 7 nM. The same measure for `CCCS(=O)(=O)N1CCN(C2(CNC(=O)c3c(Cl)cccc3Cl)CCCCC2)CC1` [compound 43, 2,6-Dichloro-N-((1-(4-(propylsulfonyl)piperazin-1-yl)cyclohexyl)methyl) benzamide Hydrochloride]: 12 nM; for `CCCS(=O)(=O)N1CCN(C2(CNC(=O)c3c(C)cccc3F)CCC(F)(F)CC2)CC1` [compound 147, N-((4,4-Difluoro-1-(4-(propylsulfonyl)piperazin-1-yl)cyclohexyl)methyl)-2-fluoro-6-methyl-benzamide Hydrochloride]: 31 nM. As for `COc1cccc(Cl)c1C(=O)NCC1(N2CCN(S(=O)(=O)c3cn(C)cn3)CC2)CCC(F)(F)CC1` [compound 173, 2-Chloro-N-((4,4-Difluoro-1-(4-(1-methyl-1H-imidazol-4-ylsulfonyl)piperazin-1-yl)cyclohexyl)methyl)-6-methoxybenzamide Hydrochloride], the IC50 came out at 2 nM. Regarding `Cn1cnc(S(=O)(=O)N2CCN(C3(CNC(=O)c4ccc(Cl)cc4F)CCC(F)(F)CC3)CC2)c1` [compound 165, 4-Chloro-N-((4,4-difluoro-1-(4-(1-methyl-1H-imidazol-4-ylsulfonyl)piperazin-1-yl)cyclohexyl)methyl)-2-fluorobenzamide Hydrochloride], the IC50 came to 29 nM. Regarding `Cn1cnc(S(=O)(=O)N2CCN(C3(CNC(=O)c4ccc(F)cc4C(F)(F)F)CCC(F)(F)CC3)CC2)c1` [compound 169, N-((4,4-Difluoro-1-(4-(1-methyl-1H-imidazol-4-ylsulfonyl)piperazin-1-yl)cyclohexyl)methyl)-4-fluoro-2-(trifluoromethyl)benzamide Hydrochloride], the IC50 came to 2 nM. Turning to `CCS(=O)(=O)N1CCN(C2(CNC(=O)c3c(Cl)cc(C(F)(F)F)cc3C(F)(F)F)CCC(F)(F)CC2)CC1` [compound 206, 2-Chloro-N-((1-(4-(ethylsulfonyl)piperazin-1-yl)-4,4-difluorocyclohexyl)methyl)-4,6-bis(trifluoromethyl) benzamide Hydrochloride], the IC50 is 83 nM. The result for `Cn1cnc(S(=O)(=O)N2CCN(C3(CNC(=O)c4ccc(C(F)(F)F)cc4F)CCC(F)(F)CC3)CC2)c1` [compound 170, N-((4,4-Difluoro-1-(4-(1-methyl-1H-imidazol-4-ylsulfonyl)piperazin-1-yl)cyclohexyl)methyl)-2-fluoro-4-(trifluoromethyl)benzamide Hydrochloride] reads 14 nM.

As for `CCCS(=O)(=O)N1CCN(C2(CNC(=O)c3c(Cl)ccc(C(F)(F)F)c3Cl)CCC(F)(F)CC2)CC1` [compound 265, 2,6-Dichloro-N-((4,4-difluoro-1-(4-(propylsulfonyl)piperazin-1-yl)cyclohexyl)methyl)-3-(trifluoromethyl) benzamide Hydrochloride], the concentration for half-maximal inhibition (IC50) is 228 nM. As for `CCCS(=O)(=O)N1CCN(C2(CNC(=O)c3ccc(C)c(Cl)c3)CCCCC2)CC1` [compound 31, 3-Chloro-4-methyl-N-((1-(4-(propylsulfonyl)piperazin-1-yl)cyclohexyl)methyl) benzamide Hydrochloride], the IC50 was 590 nM.
